Experimental findings from patent US20090270474A1, “Therapeutic Agent for Keratoconjunctival Disorder” (priority 2005, published 2009) are described below.

In this test the test system is corneal disorder models. Nature of the test: Test for therapeutic effect on corneal disorder (exorbital lacrimal gland removal model, fluorescein staining score). It counts as in vivo, male SD rats. On the procedure: Using male SD rats, corneal disorder models were produced in accordance with the method of Fujihara et al. (Invest. Opthalmol. Vis. Sci. 42 (1): 96-100 (2001)). After the production of the corneal disorder models, the corneal disorder score was evaluated in accordance with the method of Murakami et al. (Journal of the eye 21 (1): 87-90 (2004)), and the improvement ratio of corneal disorder after instillation of eprosartan mesylate (hereinafter referred to as “Compound A”) was obtained.
As test animals, male SD rats were used, and systemic anesthesia was given to the rats by administration of Nembutal. Subsequently the exorbital lacrimal gland was removed and a corneal disorder was induced over a period of 2 months.
Then, Compound A was administered as follows.
A phosphate-buffered saline solution (PBS solution) containing Compound A (0.1%) was instilled into both eyes 6 times a day for 14 days (instilled amount: 5 μL/dose) (one group consisting of 4 animals, 8 eyes).
In a control group, PBS solution was instilled into both eyes 6 times a day for 14 days (instilled amount: 5 μL/dose) (one group consisting of 4 animals, 8 eyes).
Fourteen days after the start of instillation, the damaged parts of the cornea were stained with fluorescein. For each of the upper, middle and lower parts of the cornea, the degree of fluorescein staining was evaluated by scoring according to the criteria shown below and the improvement ratio of corneal disorder was calculated from the mean value of the total scores for each of the above-mentioned parts.
Also for normal eyes, the mean value of the total scores for each of the above-mentioned parts was obtained. […]
By taking the mean value of the total scores for the control group (PBS solution) as a standard (improvement ratio: 0%) and according to the calculation formula shown below, the improvement ratio in the Compound A instillation group was calculated, which is shown in Table 1. […]

As for `CCCCc1ncc(/C=C(\Cc2cccs2)C(=O)O)n1Cc1ccc(C(=O)O)cc1` [Compound A, (E)-a-[[2-n-butyl-1-[(4-carboxyphenyl)methyl]-1H-imidazol-5-yl]methylene]-2-thiophenepropionic acid monomethanesulfonate], the “Improvement ratio (%)” value (0.1% in PBS instilled 6 times a day for 14 days, {(control)-(Compound A)}/((control)-(normal eye))x100, control = 0%) is given as 84.8%. The “Improvement of corneal damage (in words)” value (rats, Table 1, 0.1% instillation for 14 days) was “significantly improved a corneal damage”. The “Mean value of scores” value (total fluorescein staining score (upper, middle, lower cornea, each 0-3), 0.1% in PBS instilled into both eyes 6 times a day for 14 days, mean of 8 eyes, control 6.1, normal eye 2.8) was found to be 3.3.
